Biological target: T1, Human TRPV3 (Homo sapiens, UniProt Q8NET8)
T1 construct: expressed in transfected cells; host or cells: CHO cells (G-418 selected)
T1 sequence (Q8NET8 1-790): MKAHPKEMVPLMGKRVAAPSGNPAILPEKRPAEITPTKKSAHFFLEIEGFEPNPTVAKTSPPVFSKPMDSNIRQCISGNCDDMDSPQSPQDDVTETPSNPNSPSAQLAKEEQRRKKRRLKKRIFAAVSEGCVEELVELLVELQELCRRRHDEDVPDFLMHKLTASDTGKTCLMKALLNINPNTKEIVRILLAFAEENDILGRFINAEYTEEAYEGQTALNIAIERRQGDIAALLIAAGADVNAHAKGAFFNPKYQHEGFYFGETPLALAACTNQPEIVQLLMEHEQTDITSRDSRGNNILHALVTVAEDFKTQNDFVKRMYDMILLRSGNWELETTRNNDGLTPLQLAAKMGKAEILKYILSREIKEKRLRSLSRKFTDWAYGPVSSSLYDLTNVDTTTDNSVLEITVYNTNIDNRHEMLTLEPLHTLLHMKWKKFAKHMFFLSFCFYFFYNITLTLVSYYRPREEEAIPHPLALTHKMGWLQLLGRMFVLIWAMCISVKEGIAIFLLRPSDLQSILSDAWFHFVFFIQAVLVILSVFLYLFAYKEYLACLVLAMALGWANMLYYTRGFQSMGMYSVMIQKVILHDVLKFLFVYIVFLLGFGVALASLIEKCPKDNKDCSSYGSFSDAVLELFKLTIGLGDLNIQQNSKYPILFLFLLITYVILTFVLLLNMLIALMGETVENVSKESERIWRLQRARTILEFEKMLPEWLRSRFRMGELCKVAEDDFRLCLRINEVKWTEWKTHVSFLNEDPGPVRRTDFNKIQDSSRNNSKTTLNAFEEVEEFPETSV
Experiment: 45Calcium uptake assay: inhibition of 2-APB induced cellular uptake of radioactive calcium
Type: cell-based
Settings: human TRPV3 expressing CHO cells, 2-APB 500 μM; for inhibition at 1 µM: 1.0 μM compound, read-out: Percentage inhibition at 1.0 μM; for inhibition at 10 µM: 10.0 μM compound, read-out: Percentage inhibition at 10.0 μM
Text: The illustrative examples of the present invention are screened for TRPV3 activity according to a modified procedure described in Toth, A. et al. Life Sciences (2003), 73, 487-498. The screening of the compounds can be carried out by other methods and procedures known to a person skilled in the art. Such screening methods may be found in Hu, H-Z., et al. J. Biol. Chem. (2004), 279, 35741-35748; Smith, G. D et al. Nature (2002), 418, 186-190 and Peier, A. M., et al. Science (2002), 296, 2046-2049.
Screening for TRPV3 Antagonist Using the ^45Calcium Uptake Assay:
The inhibition of TRPV3 receptor activation was followed as inhibition of 2-APB induced cellular uptake of radioactive calcium. Test compounds were dissolved in DMSO to prepare 20 mM stock and then diluted using plain medium with 0.1% BSA and 1.8 mM CaCl2 to get desired concentration. Final concentration of DMSO in the reaction was 0.5% (v/v). Human TRPV3 expressing CHO cells were grown in F-12 DMEM medium with 10% FBS, 1% penicillin-streptomycin solution, 400 μg/ml of G-418. Cells were seeded 24 h prior to the assay in 96 well plates so as to get ˜50,000 cells per well on the day of experiment. Cells were treated with test compounds for 10 minutes followed by addition of 2-APB at a final concentration of 500 μM and 5 μCi/ml ^45Ca^+2 for 4 minutes. Cells were washed and lysed using buffer containing 1% Triton X-100, 0.1% deoxycholate and 0.1% SDS. Radioactivity in the lysate was measured in Packardt Top count after addition of liquid scintillant.
Concentration response curves were plotted as a % of maximal response obtained in the absence of test antagonist. IC50 value was calculated from concentration response curve by nonlinear regression analysis using GraphPad PRISM software.
Percentage inhibition at concentrations of 1.0 μM and 10.0 μM are given in the table along with IC50 (nM) values for selected examples.

Compound | inhibition at 1 µM | inhibition at 10 µM | IC50
Cc1cccc(CCC(=O)N[C@@H]2CC3(CCC3)Oc3ccc(Cl)cc32)c1OC1CCCC1 [Example 53, (4R)-6-Chloro-N-(3,4-dihydrospiro[chromene-2,1′-cyclobutan]-4-yl)-3-(2-cyclopentyloxy-3-methyl)phenylpropanamide] | 61.9% | 91.4% | 0.5 to 1 µM
Cc1cccc(CCC(=O)N[C@H]2CC3(CCC3)Oc3ccc(Cl)cc32)c1OC1CCCC1 [Example 54, (4S)-6-Chloro-N-(3,4-dihydrospiro[chromene-2,1′-cyclobutan]-4-yl)-3-(2-cyclopentyloxy-3-methyl)phenylpropanamide] | 36.2% | 63.6% | 
COc1cccc(CCC(=O)NC2CC3(CCC3)Oc3ccc(Cl)cc32)c1OCc1ccccc1 (stereo not drawn) [Example 56, N-(6-Chloro-3,4-dihydrospiro[chromene-2,1′-cyclobutan]-4-yl)-3-(2-benzyloxy-3-methoxy)phenylpropanamide] | 57.5% | 87.5% | 
CC(C)Oc1c(CCC(=O)NC2CC3(CCC3)Oc3ccc(Cl)cc32)cccc1NS(C)(=O)=O (stereo not drawn) [Example 57, N-(6-Chloro-3,4-dihydrospiro[chromene-2,1′-cyclobutan]-4-yl)-3-{2-isopropoxy-3-[(methylsulfonyl)amino]phenyl}propanamide] | 30.3% | 84.3% | 
CC(C)Oc1c(CCC(=O)NC2CC3(CCC3)Oc3c(Cl)cccc32)cccc1NS(C)(=O)=O (stereo not drawn) [Example 58, N-(8-Chloro-3,4-dihydrospiro[chromene-2,1′-cyclobutan]-4-yl)-3-{2-isopropoxy-3-[(methylsulfonyl)amino]phenyl}propanamide] | 61.7% | 98.7% | 
COc1cccc(CCC(=O)NC2CC3(CCC3)Oc3c(Cl)cc(Cl)cc32)c1OC1CCCC1 (stereo not drawn) [Example 59, N-(6,8-Dichloro-3,4-dihydrospiro[chromene-2,1′-cyclobutan]-4-yl)-3-(2-cyclopentyloxy-3-methoxy)phenylpropanamide] | 89.4% | 96.3% | < 0.5 µM
COc1cccc(CCC(=O)NC2CC3(CCC3)Oc3c(Cl)cc(Cl)cc32)c1OCCN(C)C (stereo not drawn) [Example 60, N-(6,8-dichloro-3,4-dihydrospiro[chromene-2,1′-cyclobutan]-4-yl)-3-{[2-(dimethylamino)ethoxy-3-methoxy]phenyl}propanamide] | 1.2% | 0% | 
CCCOc1c(CCC(=O)NC2CC3(CCC3)Oc3c(Cl)cc(Cl)cc32)cccc1NS(C)(=O)=O (stereo not drawn) [Example 61, N-(6,8-dichloro-3,4-dihydrospiro[chromene-2,1′-cyclobutan]-4-yl)-3-{2-propoxy-3-[(methylsulfonyl)amino]phenyl}propanamide] | 45.1% | 93.8% | 
CC(C)Oc1ccc(NS(C)(=O)=O)cc1CCC(=O)NC1CC2(CCC2)Oc2c(Cl)cc(Cl)cc21 (stereo not drawn) [Example 62, N-(6,8-Dichloro-3,4-dihydrospiro[chromene-2,1′-cyclobutan]-4-yl)-3-{2-isopropoxy-5-[(methylsulfonyl)amino]phenyl}propanamide] | 13.5% | 82.2% | 
CCCCOc1c(CCC(=O)NC2CC3(CCC3)Oc3c(Cl)cc(Cl)cc32)cccc1NS(C)(=O)=O (stereo not drawn) [Example 63, N-(6,8-Dichloro-3,4-dihydrospiro[chromene-2,1′-cyclobutan]-4-yl)-3-{2-butoxy-3-[(methylsulfonyl)amino]phenyl}propanamide] | 73.3% | 97% | 
CS(=O)(=O)Nc1cccc(CCC(=O)NC2CC3(CCC3)Oc3c(Cl)cc(Cl)cc32)c1OCC1CC1 (stereo not drawn) [Example 64, N-(6,8-Dichloro-3,4-dihydrospiro[chromene-2,1′-cyclobutan]-4-yl)-3-{2-(cyclopropylmethoxy)-3-[(methylsulfonyl)amino]phenyl}propanamide] | 37.6% | 95.4% | 
CC(C)Oc1c(CCC(=O)NC2CC3(CCC3)Oc3c(Cl)cc(Cl)cc32)cccc1NS(C)(=O)=O (stereo not drawn) [Example 65, N-(6,8-Dichloro-3,4-dihydrospiro[chromene-2,1′-cyclobutan]-4-yl)-3-{2-isopropoxy-3-[(methylsulfonyl)amino]phenyl}propanamide] | 74.1% | 99.5% | 0.5 to 1 µM
O=C(CCc1cccc2ccccc12)NC1CC2(CCC2)Oc2ccc(Cl)cc21 (stereo not drawn) [Example 66, N-(6-Chloro-3,4-dihydrospiro[chromene-2,1′-cyclobutan]-4-yl)-3-(1-naphthyl)propanamide] | 44.6% | 92.3% | 
COc1ccc2ccccc2c1CCC(=O)N[C@@H]1CC2(CCC2)Oc2ccc(Cl)cc21 [Example 67] | 17% | 84.7% | 
COc1ccc2ccccc2c1CCC(=O)N[C@H]1CC2(CCC2)Oc2ccc(Cl)cc21 [Example 68] | 70.6% | 91% | 0.5 to 1 µM
COc1ccc(CCC(=O)N[C@@H]2CC3(CCC3)Oc3ccc(Cl)cc32)c2ccccc12 [Example 69, N-[(4R)-6-Chloro-3,4-dihydrospiro[chromene-2,1′-cyclobutan]-4-yl)-3-(4-methoxy)-1-naphthylpropanamide] | 40.3% | 86.8% | 
COc1ccc(CCC(=O)N[C@H]2CC3(CCC3)Oc3ccc(Cl)cc32)c2ccccc12 [Example 70, N-[(4S)-6-Chloro-3,4-dihydrospiro[chromene-2,1′-cyclobutan]-4-yl)-3-(4-methoxy)-1-naphthylpropanamide] | 66.1% | 91.2% | 0.5 to 1 µM
O=C(CCc1ccc(OC(F)F)c2ccccc12)N[C@@H]1CC2(CCC2)Oc2ccc(Cl)cc21 [Example 71, (4R)-6-Chloro-N-(3,4-dihydrospiro[chromene-2,1′-cyclobutan]-4-yl)-3-(4-difluoro-methoxy-1-naphthyl)propanamide] | 53.5% | 95.5% | 
O=C(CCc1ccc(OC(F)F)c2ccccc12)N[C@H]1CC2(CCC2)Oc2ccc(Cl)cc21 [Example 72, (4S)-6-Chloro-N-(3,4-dihydrospiro[chromene-2,1′-cyclobutan]-4-yl)-3-(4-difluoromethoxy-1-naphthyl)propanamide] | 60.3% | 93.3% | 0.5 to 1 µM
O=C(CCc1ccc2ccccc2c1)NC1CC2(CCC2)Oc2ccc(Cl)cc21 (stereo not drawn) [Example 73, N-(6-Chloro-3,4-dihydrospiro[chromene-2,1′-cyclobutan]-4-yl)-3-(2-naphthyl)propanamide] | 61.3% | 83.3% | 0.5 to 1 µM
COc1ccc2cc(CCC(=O)N[C@@H]3CC4(CCC4)Oc4ccc(Cl)cc43)ccc2c1 [Example 74] | 64.1% | 90.4% | 1 to 2 µM
COc1ccc2cc(CCC(=O)N[C@H]3CC4(CCC4)Oc4ccc(Cl)cc43)ccc2c1 [Example 75] | 46.6% | 90.4% | 
O=C(CCc1ccc2ccccc2n1)NC1CC2(CCC2)Oc2ccc(Cl)cc21 (stereo not drawn) [Example 76, N-(6-Chloro-3,4-dihydrospiro[chromene-2,1′-cyclobutan]-4-yl)-3-(quinolin-2-yl)propanamide] | 23.5% | 58.8% | 
